Measurements reported in PMC10223470 (Molecules, 2023).
Counter-ions that a name gives are not always drawn.

system: mice; test: Elevated plus-maze (EPM) test; format: in vivo; settings: 1 mg/kg s.c., 60 min before the test; p < 0.05 versus vehicle
Method: (§1) The experiments were carried out on 6 weeks old naive Swiss male mice (Experimental Medicine Center (OMD), Lublin, Poland), weighing 28–30 g. The cages with mice were located in air-conditioned rooms maintaining the ambient temperature within the range of 23–25 °C. The animals were provided with a natural 12 h day/night cycle, replicating the day and night mode. Each testing group was represented by 8–10 animals, depending on the research schedule. All experiments were conducted according to the National Institute of Health Guidelines for the Care and Use of Laboratory Animals (8th edition) and to the European Community Council Directive for the Care and Use of Laboratory Animals of 22 September 2010 (2010/63/EU) and were approved by the Local Ethical Committee (number of ethical approval: 147/2018).
(§2) Compound 17 (25, 50, 75 mg/kg) was suspended in 1% Tween 80 in saline solution and was administered intraperitoneally (i.p.) 60 min before the test. Diazepam (DZ, Relanium, Polfa, Poland) at a dose of 1 mg/kg was diluted in 0.9% saline containing 1% Tween 80 and was administered subcutaneously (s.c.), 60 min before the test. Imipramine hydrochloride (30 mg/kg, Sigma-Aldrich was administered intraperitoneally (i.p.) 60 min before the test. D-amphetamine sulfate (3 mg/kg; Sigma-Aldrich, USA) was given subcutaneously (s.c.). Prior to administration, the agent was dissolved in saline and injected 30 min before the test. Control animals received an (i.p.) or (s.c.) injection of a respective vehicle. All compounds were injected in a manner generally accepted in experimental pharmacology, in an amount of 10 mL/kg body weight.
The experiment was carried out on mice according to the method of Lister. […] The number of entries into the open arms and the time spent in these arms were scored for a 5-min test period. […] The following measures were obtained from the test: the total number of arm entries, the percentage of entries into the open arms, the time spent in the open arms expressed as a percentage of the time spent in both the open and closed arms. […]

| Structure (SMILES) | time spent in the open arms of the maze |
| --- | --- |
| CN1C(=O)CN=C(c2ccccc2)c2cc(Cl)ccc21 [Diazepam, reference compound] | statistically significant increase |

system: mice; test: Forced swim test (FST); format: in vivo; settings: imipramine 30 mg/kg i.p., 60 min before the test; p < 0.001
Method: The experiments were carried out on 6 weeks old naive Swiss male mice (Experimental Medicine Center (OMD), Lublin, Poland), weighing 28–30 g. The cages with mice were located in air-conditioned rooms maintaining the ambient temperature within the range of 23–25 °C. The animals were provided with a natural 12 h day/night cycle, replicating the day and night mode. Each testing group was represented by 8–10 animals, depending on the research schedule. All experiments were conducted according to the National Institute of Health Guidelines for the Care and Use of Laboratory Animals (8th edition) and to the European Community Council Directive for the Care and Use of Laboratory Animals of 22 September 2010 (2010/63/EU) and were approved by the Local Ethical Committee (number of ethical approval: 147/2018). Compound 17 (25, 50, 75 mg/kg) was suspended in 1% Tween 80 in saline solution and was administered intraperitoneally (i.p.) 60 min before the test. […] Imipramine hydrochloride (30 mg/kg, Sigma-Aldrich was administered intraperitoneally (i.p.) 60 min before the test. […] Sigma-Aldrich, USA) was given subcutaneously (s.c.). Prior to administration, the agent was dissolved in saline and injected 30 min before the test. Control animals received an (i.p.) or (s.c.) injection of a respective vehicle. All compounds were injected in a manner generally accepted in experimental pharmacology, in an amount of 10 mL/kg body weight. Forced Swim Test was carried out according to the method of Porsolt et al.. It is a standard behavioral test, called the resignation test, which is used to determine the effectiveness of antidepressant drugs in laboratory rodents. Each mouse was placed individually for 6 min into a glass cylinder (height 25 cm, diameter 10 cm) with 15 cm of water at 23–25 °C. After the first 2 min of the test, the total duration of immobility (in seconds) was measured. An animal was judged to be immobile when it ceased struggling and remained floating motionless and making only movements allowing it to keep the head just above the surface of the water.

| Structure (SMILES) | effect on immobility time |
| --- | --- |
| CN(C)CCCN1c2ccccc2CCc2ccccc21 [imipramine, Imipramine hydrochloride, reference compound] | statistically significant decrease |

molecular target: T1, human D2S receptor (Homo sapiens, UniProt P14416); test: Competition radioligand binding at human D2 receptor ([3H]-Spiperone, CHO-K1 membranes); settings: D2 receptor affinity
T1 construct: expressed in transfected cells; host or cells: CHO-K1
T1 sequence (P14416 1-414 isoform P14416-2): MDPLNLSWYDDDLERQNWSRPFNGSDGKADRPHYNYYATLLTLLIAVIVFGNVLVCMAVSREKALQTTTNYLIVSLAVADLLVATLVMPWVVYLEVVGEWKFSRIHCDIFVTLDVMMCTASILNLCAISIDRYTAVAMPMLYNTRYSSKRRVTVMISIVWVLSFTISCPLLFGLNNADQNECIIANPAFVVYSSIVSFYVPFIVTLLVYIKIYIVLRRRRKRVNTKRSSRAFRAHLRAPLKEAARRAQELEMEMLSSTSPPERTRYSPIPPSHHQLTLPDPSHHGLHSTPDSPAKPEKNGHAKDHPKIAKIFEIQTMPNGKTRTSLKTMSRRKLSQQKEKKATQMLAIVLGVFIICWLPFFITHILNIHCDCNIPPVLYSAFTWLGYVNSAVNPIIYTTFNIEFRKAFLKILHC
Method: Experiments were carried out in membranes isolated from a CHO-K1 cell line stably overexpressing the cloned human D2S receptor.
Competition radioligand binding assays were performed on membranes isolated from cell lines stably expressing the cloned human receptors, which were either in-house or commercially available. […] Assays (250 μL assay final volume) were carried out in 96-well polypropylene plates in duplicate. In short, the suspension of appropriate membrane protein was incubated in an assay buffer with the addition of the corresponding radioligand, in the presence or absence of a tested compound or reference compound. […] After the incubation, the content of the test plates was transferred to 96 well plates with glass fiber filter GF/B or GF/C, previously pretreated with polyethyleneimine (PEI), and rapidly filtered with the use of vacuum, followed by rapid washing with cold (4 °C) wash buffer. After that, the filter plates were dried at 60 °C for 1 h. Then, 30 μL of liquid scintillation cocktail (UniverSol-ES, MP Biomedicals, Solon, OH, USA) was added to each well of the filter plates, and the radioactivity was measured in a MicroBeta^2 microplate scintillation counter (PerkinElmer, Madrid, Spain).
Competition binding curves were fitted to a one-site competition binding model (Fit Ki) with the use of Prism 7 software (GraphPad, San Diego, CA, USA). logKi (log of the equilibrium dissociation constant (Ki)) values were obtained after constraining the concentration of radioligand employed in the assay and its dissociation constant (KD) as determined in saturation radioligand binding assays.

| Structure (SMILES) | decrease of activity compared to the initial compound (D2AAK2) |
| --- | --- |
| O=C(CCN1C(=O)CCOc2ccccc21)Nc1ccc(C(F)(F)F)cc1 [Compound 4, 3-(4-Oxo-3,4-dihydrobenzo[b][1,4]oxazepin-5(2H)-yl)-N-(4-(trifluoromethyl)phenyl)propanamide] | 10 fold |

same assay, conditions: mean ± SEM of 2–3 independent experiments in duplicate; read-out: huD2 Ki

| Structure (SMILES) | Ki |
| --- | --- |
| O=C(CCN1C(=O)CCOc2ccccc21)Nc1ccc(C(F)(F)F)cc1 [Compound 4, 3-(4-Oxo-3,4-dihydrobenzo[b][1,4]oxazepin-5(2H)-yl)-N-(4-(trifluoromethyl)phenyl)propanamide] | 3.846 ± 0.035 µM |

same assay, conditions: read-out: huD2 % inh. at 10 µM

| Structure (SMILES) | inhibition at 10 µM |
| --- | --- |
| Cc1cccc(NC(=O)CCN2C(=O)CSc3ccccc32)c1 [Compound 13, 3-(3-Oxo-2,3-dihydro-4H-benzo[b][1,4]thiazin-4-yl)-N-(m-tolyl)propanamide] | 32 ± 4% |
| O=C(CCn1c(=O)oc2ccccc21)Nc1ccc(C(F)(F)F)cc1 [Compound 3, 3-(2-Oxobenzo[d]oxazol-3(2H)-yl)-N-(4-(trifluoromethyl)phenyl)propanamide] | 8 ± 8% |
| O=C(CCN1C(=O)COc2ccccc21)Nc1ccc(C(F)(F)F)cc1 [Compound 1, 3-(3-Oxo-2,3-dihydro-4H-benzo[b][1,4]oxazin-4-yl)-N-(4-(trifluoromethyl)phenyl)propanamide] | 35 ± 14% |
| O=C(CCN1C(=O)CSc2ccccc21)Nc1ccccc1[N+](=O)[O-] [Compound 21, N-(2-Nitrophenyl)-3-(3-oxo-2,3-dihydro-4H-benzo[b][1,4]thiazin-4-yl)propanamide] | 5 ± 3% |
| COc1ccc(NC(=O)CCN2C(=O)CSc3ccccc32)cc1 [Compound 20, N-(4-Methoxyphenyl)-3-(3-oxo-2,3-dihydro-4H-benzo[b][1,4]thiazin-4-yl)propanamide] | 47 ± 1% |
| O=C(CCN1CCSCC1=O)Nc1ccc(C(F)(F)F)cc1 [Compound 5, 3-(3-Oxothiomorpholino)-N-(4-(trifluoromethyl)phenyl)propanamide] | 14 ± 10% |
| O=C(CCn1c(=O)sc2ccccc21)Nc1ccc(C(F)(F)F)cc1 [Compound 2, 3-(2-Oxobenzo[d]thiazol-3(2H)-yl)-N-(4-(trifluoromethyl)phenyl)propanamide] | 11 ± 5% |
| O=C(CCN1C(=O)CSc2ccccc21)Nc1ccccc1C(F)(F)F [Compound 11, 3-(3-Oxo-2,3-dihydro-4H-benzo[b][1,4]thiazin-4-yl)-N-(2-(trifluoromethyl)phenyl)propanamide] | 9 ± 1% |
| O=C(CN1C(=O)CSc2ccccc21)Nc1ccc(C(F)(F)F)cc1 [Compound 9, 2-(3-Oxo-2,3-dihydro-4H-benzo[b][1,4]thiazin-4-yl)-N-(4-(trifluoromethyl)phenyl)acetamide] | 8 ± 8% |
| Cc1ccccc1NC(=O)CCN1C(=O)CSc2ccccc21 [Compound 12, 3-(3-Oxo-2,3-dihydro-4H-benzo[b][1,4]thiazin-4-yl)-N-(o-tolyl)propanamide] | 10% |
| COc1cccc(NC(=O)CCN2C(=O)CSc3ccccc32)c1 [Compound 19, N-(3-Methoxyphenyl)-3-(3-oxo-2,3-dihydro-4H-benzo[b][1,4]thiazin-4-yl)propanamide] | 10 ± 4% |
| Cc1ccccc1S(=O)(=O)NCCC(=O)Nc1ccc(C(F)(F)F)cc1 [Compound 7, 3-((2-Methylphenyl)sulfonamido)-N-(4-(trifluoromethyl)phenyl)propanamide] | 13 ± 13% |
| COc1ccccc1NC(=O)CCN1C(=O)CSc2ccccc21 [Compound 18, N-(2-Methoxyphenyl)-3-(3-oxo-2,3-dihydro-4H-benzo[b][1,4]thiazin-4-yl)propanamide] | 6% |
| O=C(CCN1CCCCC1=O)Nc1ccc(C(F)(F)F)cc1 [Compound 6, 3-(2-Oxopiperidin-1-yl)-N-(4-(trifluoromethyl)phenyl)propanamide] | 14 ± 11% |
| O=C(CCN1C(=O)CSc2ccccc21)Nc1cccc(Cl)c1 [Compound 16, N-(3-Chlorophenyl)-3-(3-oxo-2,3-dihydro-4H-benzo[b][1,4]thiazin-4-yl)propanamide] | 42 ± 8% |
| O=C(CCN1C(=O)CSc2ccccc21)Nc1ccccc1 [Compound 10, 3-(3-Oxo-2,3-dihydro-4H-benzo[b][1,4]thiazin-4-yl)-N-phenylpropanamide] | 39 ± 4% |
| O=C(CCN1C(=O)CSc2ccccc21)Nc1cccc([N+](=O)[O-])c1 [Compound 22, N-(3-Nitrophenyl)-3-(3-oxo-2,3-dihydro-4H-benzo[b][1,4]thiazin-4-yl)propanamide] | 27 ± 2% |
| O=C(CCN1C(=O)CSc2ccccc21)Nc1ccccc1Cl [Compound 15, N-(2-Chlorophenyl)-3-(3-oxo-2,3-dihydro-4H-benzo[b][1,4]thiazin-4-yl)propanamide] | 9 ± 3% |
| Cc1ccc(S(=O)(=O)NCCC(=O)Nc2ccc(C(F)(F)F)cc2)cc1 [Compound 8, 3-((4-Methylphenyl)sulfonamido)-N-(4-(trifluoromethyl)phenyl)propanamide] | 8 ± 7% |

system: mice; test: Amphetamine-induced hyperactivity in mice; format: in vivo; settings: amphetamine 3 mg/kg s.c.
Method: as §1, §2
The measurement of the spontaneous locomotor activity was carried out using the OptoVarimex 4 Auto-Track device (Columbus Instruments, Columbus, OH, USA). Tested animals are kept in cages for 30 min. Their activity was recorded as interruptions of the light beams after 10 and 30 min of the test, and it was calculated automatically as a traveled distance in cm (±SEM). To determine whether compound 17 has an influence on amphetamine-induced hyperactivity, each mouse received 17 (25, 50 and 75 mg/kg; i.p.) and amphetamine (3 mg/kg; s.c.) 30 min after injection of 17 or vehicle and then spontaneous locomotor activity was measured.

| Structure (SMILES) | effect on locomotor activity compared to the control group after 10 min | effect on locomotor activity compared to the control group after 30 min |
| --- | --- | --- |
| C[C@H](N)Cc1ccccc1 [amphetamine, D-amphetamine sulfate, reference compound] | increased mice locomotor activity | increased mice locomotor activity |
